Measurements taken from patent publication US9683231B2, “RNAi-based method of drug screening and characterization” (Massachusetts Institute of Technology, priority 2010, dated 2017).

What was measured:
[1] = tested on: Eμ-Mycp19^Arf−/− mouse lymphoma cells; assay: Drug treatment and FACS viability (propidium iodide) to determine LD80-90; assay type: cell-based; conditions: concentration at which 80-90% of uninfected lymphoma cells were killed, lowest viability of 24, 48 and 72 h between 10% and 20%; for IC (80-90): Mus musculus, read-out: Concentration used (LD80-90)
[2] = tested on: lymphoma cells expressing shATM, shChk2 or shp53; assay: shATM-Chk2-p53 resistance signature; assay type: cell-based, mouse; conditions: suppression of ATM, Chk2 and p53
Method: (3d) A comparison of the shTopoI and shTopoII response signatures for APG and NSC3852 with response signatures derived from established Topol (CPT and CPT11) and TopoII poisons (Dox, Mito and VP-16). […] In each case, one million cells were plated before treatment.
Eμ-Mycp19^Arf−/− cells were counted and seeded at 1 million cells per ml in 48-well plates and treated with various concentrations of drugs. To approximate therapeutic situations in which drug dose decreases over time, half of the volume from each experiment was removed and replenished with fresh medium every 24 h. Cells were analyzed by fluorescence-activated cell sorting (FACS), with propidium iodide as a viability marker. LD80-90 of drugs are defined as concentrations at which the lowest viability reading out of three FACS time points (24, 48 and 72 h) is between 10% and 20%. After drug dose was determined, Eμ-Mycp19^Arf−/− cells were infected with retroviruses encoding shRNAs targeting particular genes. Individual infected cell populations were counted and seeded at 1 million cells per ml in 48-well plates and treated with drugs using the aforementioned protocol. At 72 h, treated and untreated cells were analyzed by flow cytometry. GFP percentages of live (PI-negative) cells were recorded and used to calculate relative resistance index.
To compare the relative level of chemoresistance and sensitization conferred by each gene knockdown, the concept of RI (see definition above) was introduced, to more accurately analyze the GFP competition results. The value of RI is defined as X. The biological meaning of this factor X is that in a mixture of uninfected and infected (knockdown) cells, the infected (knockdown) cells will be X-fold as likely to survive drug treatment when compared to uninfected cells. By this definition of X, if one out of n uninfected cells survives a drug treatment, then X our of n infected cells should survive. If the total number of uninfected and infected cells are defined as T and the GFP percentage of untreated population are defined as G1, then the number of surviving, uninfected cells (un) can be defined as n−un=T×(1−G1)×1/n, and the number of surviving, infected cells (in) can be defined as n−in=Tx G1×X/n. […] From this equation, it can be derived that X=(G2−G1×G2)/(G1−G1×G2). This equation was used in the studies to compute RI values.

[3] = tested on: cells expressing shTopoI or shTopoII; assay: shTopoI and shTopoII response signatures; assay type: cell-based, mouse; conditions: FIG. 3d
γ-H2AX = assay: DNA damage response by western blot (γ-H2AX phosphorylation) in TopoI and TopoII knockdown cells; assay type: cell-based
[4] = tested on: shTopoII, shTopoI or vector control-expressing cells; assay: Long-term survival assay, surviving cells 12 days after drug treatment; assay type: cell-based
Description: Identification and functional characterization of ill-defined genotoxic drugs. […] (3b) The shATM-Chk2-p53 response signature for apigenin (APG) and NSC3852 (NSC). (3c) The branching pattern for the 18 reference compounds plus APG and NSC. APG clusters with the TopoII poisons Dox and VP-16, whereas NSC clusters with the Topol poison CPT. (3d) A comparison of the shTopoI and shTopoII response signatures for APG and NSC3852 with response signatures derived from established Topol (CPT and CPT11) and TopoII poisons (Dox, Mito and VP-16). […] In each case, one million cells were plated before treatment. Data shown are mean±s.e.m. from three Independent experiments.

[5] = tested on: Eμ-Mycp19^Arf−/− lymphoma cells expressing shRNAs targeting the Bcl2 family, p53 and its activating kinases; assay: 29-shRNA GFP competition assay, resistance index (RI), clustering and K-nearest-neighbors; assay type: cell-based, mouse
Bim = Bim expression level by western blot; assay type: cell-based, mouse; conditions: lymphoma cells treated for 6 or 9 hours
Method: 9b, Lymphoma cells were treated with SAHA or DAC for 6 or 9 hours. Bim expression level was analyzed by western blot.

SMILES: O=Nc1ccc(O)c2ncccc12 [NSC3852]
- Concentration used (LD80-90) [1]: 1.7 µM
- shATM-Chk2-p53 resistance signature [2]: strong shATM-Chk2-p53 resistance signature
- shTopoI and shTopoII resistance and sensitivity pattern [3]: characteristic pattern of resistance, similar to established TopoI poisons camptothecin and irinotecan
- induction of DNA damage (γ-H2AX; TopoI-deficient cells): failed to induce DNA damage
- long-term survival ([4]; TopoI deficiency): significantly protected

SMILES: O=c1cc(-c2ccc(O)cc2)oc2cc(O)cc(O)c12 [Apigenin]
- IC (80-90) [1]: 0.1 µM
- shATM-Chk2-p53 resistance signature [2]: strong shATM-Chk2-p53 resistance signature
- shTopoI and shTopoII resistance and sensitivity pattern [3]: shTopoII resistance and shTopoI sensitivity
- induction of DNA damage (γ-H2AX; TopoII-deficient cells): failed to induce DNA damage
- long-term survival ([4]; TopoII deficiency): significant protection

SMILES: O=C(CCCCCCC(=O)Nc1ccccc1)NO [Vorinostat, suberoylanilide hydroxamic acid]
- IC (80-90) [1]: 0.2 µM
- log2RI ([5]; shRNA targeting Bim (Bim-dependence)): ≈ 2
- effect of suppression of the Bim transcription regulator Chop on drug response ([5]; shRNA targeting Chop, FIG. 1d): resistance
- log2RI ([5]; shRNA targeting p53 (p53-independence)): ≈ 0
- levels of the proapoptotic BH3-only protein Bim (Bim): increase
